Data published in patent US20210361767A1, “RESCUING CANCER PATIENTS FROM RESISTANCE TO TREATMENT WITH INHIBITORS OF PD-1/PD-L1 INTERACTIONS” (Mayo Foundation for Medical Education and Research, priority 2018, published 2021).

How the values were obtained:
Type in all cases: cell-based
[1] = test system: Karpas-299 cells; assay: sPD-L1 ELISA of supernatants of Karpas-299 cells treated with protease inhibitors
Method: (§1) Several tumor cell lines were treated with PBS (placebo) or with various protease inhibitors, including matrix metalloprotease inhibitors TAPI-2 and TAPI-0, aspartic protease inhibitor Pepstatin, cysteine protease inhibitor E-64, serine protease inhibitor Aprotinin, combinations of these inhibitors, and an array of other matrix metalloprotease inhibitors. Cell supernatants were queried for sPD-L1 by ELISA as published elsewhere (Frigola et la., supra). In brief, paired mouse IgG2 monoclonal antibodies against extracellular rhB7-H1 were utilized in a capture-detection plate assay using biotinylation and HRP-streptavidin detection. […] Concentrations were determined by optical density measurements along a known standard curve of rhB7-H1. Karpas-299 cells were incubated at 10 MM cells per ml in cell culture media (RPMI plus FBS plus Penicillin/Streptomycin plus buffering reagents) over 24 hours in the presence of 1 μl/100 μl DMSO or PBS (placebo), TAPI-2 at 278 μM, Pepstatin at 206.5 μM, E-64 at 185 μM, or Aprotinin at 220 μM, or a combination of the above materials at various concentrations. […] All statistical analyses were performed using R! software. Two-sided, unpaired Student t tests assessed statistical differences in experimental groups except where otherwise indicated. P values indicate comparison to vehicle control groups. P<0.05 was considered statistically significant.
Subsequent studies were conducted in which Karpas-299 cells were incubated with different matrix metalloprotease inhibitors with varying specificities. For example, Karpas-299 cells were incubated at 10 MM cells per ml in cell culture media over 24 hours in the presence of 1 μl/100 μl DMSO (control), 50 μM TAPI-2, 50 μM TAPI-0, 50 μM GI254023X, 5 μM Ro 32-3555, 5 μM ARP 101, 50 μM UK 370106, 500 pM MMP-9 inhibitor I, 5 μM Doxycycline, or some combination thereof.
Aderbasib is a selective inhibitor of matrix metalloproteases ADAM10 and ADAM17. Karpas-299 cells were incubated at 1 MM-10 MM cells/ml and treated for 24 hours with concentrations of aderbasib ranging from 320 pM to […].
Karpas-299 lymphoma cells producing sB7-H1 were cultured with an array of protease inhibitors. Supernatants from these cultures were isolated and analyzed for sB7H1 concentration by ELISA. Subsequently, activated human CD8+ T cells were cultured with recombinant sB7H1 protein and cell survival was measured at 24 hours. CD8+ T cells also were cultured with sB7H1-rich tumor cell line supernatants versus sB7H1-depleted supernatants over 48 hours in the presence of placebo, low dose (10 nM), or high dose (1 μM) anti-PD-1 antibody pembrolizumab, and cell survival was measured.

[2] = test system: A786-0 (renal cell carcinoma) cells; assay: sPD-L1 ELISA of supernatants of A786-0 cells treated with protease inhibitors; conditions: A786-0 grown between 1 MM and 10 MM cells per ml; FIG. 4B
Method: Tumor cells were treated with PBS (placebo) or with various protease inhibitors, including MMP inhibitors TAPI-2 and TAPI-0, aspartic protease inhibitor Pepstatin, cysteine protease inhibitor E-64, serine protease inhibitor Aprotinin, combinations of these inhibitors, and an array of other MMP inhibitors. Cell supernatants were queried for sPD-L1 by ELISA. FIG. 4A, Karpas-299 (lymphoma) cells were treated with the indicated protease inhibitors. FIG. 4B, A786-0 (renal cell carcinoma) cells were treated with the indicated protease inhibitors. FIG. 4C, Dul45 cells were treated with the indicated protease inhibitors. FIG. 4D, Mel-B7H1 (transgenic melanoma) cells were treated with the indicated protease or metalloprotease inhibitors. FIG. 4E is a graph plotting sPD-L1 production induced by interferon treatment or high cell titer in A786-0 cells. Cells grown at 1 MM/ml in control DMSO produced little sPD-L1. […] FIG. 4F is a graph plotting the amount of sPD-L1 in supernatants of Karpas-299 cells treated with control or with varying concentrations of the ADAM10/17 inhibitor aderbasib.
Several tumor cell lines were treated with PBS (placebo) or with various protease inhibitors, including matrix metalloprotease inhibitors TAPI-2 and TAPI-0, aspartic protease inhibitor Pepstatin, cysteine protease inhibitor E-64, serine protease inhibitor Aprotinin, combinations of these inhibitors, and an array of other matrix metalloprotease inhibitors. Cell supernatants were queried for sPD-L1 by ELISA as published elsewhere (Frigola et la., supra). In brief, paired mouse IgG2 monoclonal antibodies against extracellular rhB7-H1 were utilized in a capture-detection plate assay using biotinylation and HRP-streptavidin detection. […] Concentrations were determined by optical density measurements along a known standard curve of rhB7-H1. […] Two-sided, unpaired Student t tests assessed statistical differences in experimental groups except where otherwise indicated. […]

[3] = test system: Dul45 prostate cancer cells; assay: sPD-L1 ELISA of supernatants of Dul45 prostate cancer cells; conditions: FIG. 4C
Method: as §1
Further studies were conducted using different types of cells.

[4] = test system: Mel-B7H1 (transgenic melanoma) cells; assay: sPD-L1 ELISA of supernatants of Mel-B7H1 cells; conditions: FIG. 4D
Method: as §1, with “significant. […]” for “significant.”

[5] = test system: PD-L1 mRNA; assay: PD-L1 mRNA expression by RT-PCR in Karpas-299 cells; conditions: Karpas-299, TAPI-2 at 278 μM, 24 hours; data not shown
[6] = test system: Karpas-299 cells; assay: PD-L1 flow cytometry of Karpas-299 cells; conditions: vs DMSO, FIGS. 7A, 7B
Method: (§2) FIGS. 7A and 7B are flow cytometry plots and graphs showing that cell PD-L1 expression is restored by treatment with an inhibitor of ADAM10 and/or ADAM17, and is decreased by treatment with exogenous recombinant ADAM10 or ADAM17. Cells were incubated in the presence of the indicated treatments, and PD-L1 flow cytometry was performed.

[7] = test system: A549 cells; assay: PD-L1 flow cytometry of A549 cells; conditions: vs DMSO, FIGS. 7C, 7D
Method: as §2

CC(C)C[C@H](CC(=O)NO)C(=O)N[C@H](C(=O)N[C@@H](C)C(=O)NCCN)C(C)(C)C [TAPI-2]
Karpas-299 production of sB7H1 ([1]; Example 3, supernatants by ELISA, p<0.0001): inhibited
secretion of sPD-L1 ([1]; Karpas-299, 10 MM cells per ml, 24 hours, TAPI-2 at 278 μM, vs DMSO or PBS, FIG. 4A, p=5.6×10^−12): reduced the secretion of sPD-L1
sPD-L1 secretion [2]: significantly reduced
sPD-L1 secretion versus controls [3]: significantly reduced
sPD-L1 expression [4]: most significantly reduced
PD-L1 mRNA expression (RT-PCR) [5]: without reducing PD-L1 mRNA expression
PD-L1 expression (flow cytometry) [6]: restored
PD-L1 expression (flow cytometry) [7]: restored
